According to ChEMBL document CHEMBL1201862, “PubChem BioAssay data set” (2004):
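Briefly, cells in 96-well plates were exposed to five compound concentrations for 48 h, and endpoints were estimated by linear interpolation. GI50: concentration for 50% inhibition of growth.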 Active and inactive are the calls of the source. Rule as the data show it: active = GI50 up to about 1.1 µM and inactive = higher.

Key:
Assay in all cases: NCI tumour cell line growth inhibition, 48 h
A498 = tested on: A498
ACHN = tested on: ACHN
IGROV-1 = tested on: IGROV-1
KM12 = tested on: KM12
MOLT-4 = tested on: MOLT-4
Malme-3M = tested on: Malme-3M
NCI-H226 = tested on: NCI-H226
NCI-H23 = tested on: NCI-H23
NCI/ADR-RES = tested on: NCI/ADR-RES
OVCAR-5 = tested on: OVCAR-5
OVCAR-8 = tested on: OVCAR-8
SF-268 = tested on: SF-268
SK-MEL-28 = tested on: SK-MEL-28
SK-MEL-2 = tested on: SK-MEL-2
SK-OV-3 = tested on: SK-OV-3
SN12C = tested on: SN12C
TK-10 = tested on: TK-10
UACC-257 = tested on: UACC-257
UACC-62 = tested on: UACC-62
HOP-92 = tested on: HOP-92

SMILES | GI50 (A498) | GI50 (ACHN) | GI50 (IGROV-1) | GI50 (KM12) | GI50 (MOLT-4) | GI50 (Malme-3M) | GI50 (NCI-H226) | GI50 (NCI-H23) | GI50 (NCI/ADR-RES) | GI50 (OVCAR-5) | GI50 (OVCAR-8) | GI50 (SF-268) | GI50 (SK-MEL-28) | GI50 (SK-MEL-2) | GI50 (SK-OV-3) | GI50 (SN12C) | GI50 (TK-10) | GI50 (UACC-257) | GI50 (UACC-62) | GI50 (HOP-92)
c1ccc2[nH]c3[nH]c4[nH]c5ccccc5[nH]c4[nH]c3[nH]c2c1 | > 100 µM (inactive) | > 100 µM (inactive) | > 100 µM (inactive) | > 100 µM (inactive) | > 100 µM (inactive) | > 100 µM (inactive) | > 100 µM (inactive) | > 100 µM (inactive) | > 100 µM (inactive) | 44.5 µM (inactive) | > 100 µM (inactive) | > 100 µM (inactive) | > 100 µM (inactive) | > 100 µM (inactive) | > 100 µM (inactive) | > 100 µM (inactive) | > 100 µM (inactive) | > 100 µM (inactive) | > 100 µM (inactive) | 
COc1ccc2cc(CNCCCCCCNCc3ccc4cc(OC)ccc4c3)ccc2c1 | 1.58 µM (inactive) | 1.57 µM (inactive) | 1.57 µM (inactive) | 0.221 µM (active) | 0.205 µM (active) | 1.05 µM (active) | 1.8 µM (inactive) | 2.11 µM (inactive) | 1.44 µM (inactive) | 0.885 µM (active) | 0.531 µM (active) | 0.565 µM (active) | 0.471 µM (active) | 1.24 µM (inactive) | 1.85 µM (inactive) | 1.33 µM (inactive) | 1.8 µM (inactive) | 1.83 µM (inactive) | 1.46 µM (inactive) | 
CN1N=C(c2ccncc2)OC1c1ccc(Cl)cc1Cl (stereo not given) | 49.9 µM (inactive) | 74.6 µM (inactive) | > 100 µM (inactive) | > 100 µM (inactive) | 42 µM (inactive) |  | 29.2 µM (inactive) | > 100 µM (inactive) | 71.8 µM (inactive) | > 100 µM (inactive) | > 100 µM (inactive) | > 100 µM (inactive) | > 100 µM (inactive) | > 100 µM (inactive) | 93.3 µM (inactive) | 75.3 µM (inactive) | > 100 µM (inactive) | > 100 µM (inactive) | 22.8 µM (inactive) | 
CCN(CC)CCNc1ccc(C)c2sc3ccc(O)cc3c(=O)c12 | 1.33 µM (inactive) | 0.201 µM (active) | 1.23 µM (inactive) | 1.43 µM (inactive) | < 0.012 µM (active) | 1.15 µM (inactive) | 0.466 µM (active) | 1.2 µM (inactive) |  | 4.1 µM (inactive) | 1.37 µM (inactive) | 1.8 µM (inactive) | 1.49 µM (inactive) | 1.79 µM (inactive) | 1.52 µM (inactive) | 0.594 µM (active) | 3.4 µM (inactive) | 1.55 µM (inactive) | 0.986 µM (active) | 1.87 µM (inactive)
O=C1NC(=S)N/C1=C\c1cccs1 |  |  | > 100 µM (inactive) | > 100 µM (inactive) | > 100 µM (inactive) | > 100 µM (inactive) | > 100 µM (inactive) | > 100 µM (inactive) | > 100 µM (inactive) | > 100 µM (inactive) | > 100 µM (inactive) | > 100 µM (inactive) | > 100 µM (inactive) | > 100 µM (inactive) | > 100 µM (inactive) | > 100 µM (inactive) | > 100 µM (inactive) |  | > 100 µM (inactive) | 
COC(=O)C1=C(C)N(NC(=O)Nc2ccccc2)C2(N)N(NC(=O)Nc3ccccc3)C(C)=C(C(=O)OC)C12C(=O)OC (stereo not given) | 59.6 µM (inactive) | 98.2 µM (inactive) | 24.5 µM (inactive) |  | 27.1 µM (inactive) | 84.5 µM (inactive) | 60.4 µM (inactive) | > 100 µM (inactive) |  | > 100 µM (inactive) | 71 µM (inactive) | > 100 µM (inactive) | > 100 µM (inactive) | 36 µM (inactive) | > 100 µM (inactive) | 63.2 µM (inactive) | 69.3 µM (inactive) | 16.4 µM (inactive) | 41.3 µM (inactive) | > 100 µM (inactive)
Cc1ccccc1-c1c(N)nc(NC#N)nc1C(=O)Nc1ccccc1 | > 100 µM (inactive) | > 100 µM (inactive) | > 100 µM (inactive) | > 100 µM (inactive) | > 100 µM (inactive) | > 100 µM (inactive) | > 100 µM (inactive) | > 100 µM (inactive) |  | > 100 µM (inactive) |  | > 100 µM (inactive) | > 100 µM (inactive) | 32.1 µM (inactive) | > 100 µM (inactive) | 99.8 µM (inactive) | > 100 µM (inactive) | > 100 µM (inactive) | > 100 µM (inactive) | 42.9 µM (inactive)
CC(ON1[C@](C)(c2ccccc2)CC[C@@]1(C)c1ccccc1)c1ccccc1 (stereo not given in full) |  |  | 52 µM (inactive) | 29.4 µM (inactive) | 16.2 µM (inactive) | 32.5 µM (inactive) | 40.9 µM (inactive) | 40 µM (inactive) | 48.2 µM (inactive) | 41.1 µM (inactive) | 48.2 µM (inactive) | 58.5 µM (inactive) | 53.2 µM (inactive) | 20 µM (inactive) | > 100 µM (inactive) | 45.6 µM (inactive) | > 100 µM (inactive) | 28.3 µM (inactive) |  | 21.4 µM (inactive)
Oc1nc(CC(O)c2ccc(Cl)c(Cl)c2)cc(-c2ccccc2)n1 (stereo not given) | 32.7 µM (inactive) | > 100 µM (inactive) | > 100 µM (inactive) | 69.3 µM (inactive) | 75.3 µM (inactive) | 46.8 µM (inactive) | 55.8 µM (inactive) | 71.9 µM (inactive) |  | 11.2 µM (inactive) | > 100 µM (inactive) | 80.7 µM (inactive) | > 100 µM (inactive) | 26.1 µM (inactive) | 43.6 µM (inactive) | > 100 µM (inactive) | 24.8 µM (inactive) | 36.1 µM (inactive) | 45.5 µM (inactive) | 82.8 µM (inactive)
NC(=O)C(=O)N/N=C(\CC1(O)C(=O)Nc2ccccc21)c1ccc2ccccc2c1 (stereo not given) | 17.9 µM (inactive) | 32.9 µM (inactive) | 40.5 µM (inactive) | 21.7 µM (inactive) | 20.9 µM (inactive) | 61.7 µM (inactive) | 41.4 µM (inactive) | 29.6 µM (inactive) |  | > 100 µM (inactive) | 56 µM (inactive) | 40.9 µM (inactive) | 26.9 µM (inactive) | 22.1 µM (inactive) | 46.9 µM (inactive) | 26.3 µM (inactive) | 50.2 µM (inactive) | 28.5 µM (inactive) | 19.8 µM (inactive) | 39 µM (inactive)
CCC1(CC)C(=O)N(C(=O)c2ccc(Cl)cc2)N(C(=O)c2ccccc2Cl)C1=O |  | 36.1 µM (inactive) | 3.5 µM (inactive) | 52.8 µM (inactive) | 20.6 µM (inactive) | 35.7 µM (inactive) | 16.2 µM (inactive) | 32.1 µM (inactive) | 28.3 µM (inactive) | > 100 µM (inactive) | 89.9 µM (inactive) | 35.4 µM (inactive) | 98.4 µM (inactive) | > 100 µM (inactive) | > 100 µM (inactive) | 45.1 µM (inactive) | 31.2 µM (inactive) | > 100 µM (inactive) | 85.3 µM (inactive) | 
COC(=O)c1ccc(/C=C/S(=O)(=O)c2ccccc2)cc1 | > 100 µM (inactive) | > 100 µM (inactive) | > 100 µM (inactive) | > 100 µM (inactive) | > 100 µM (inactive) | > 100 µM (inactive) | > 100 µM (inactive) | > 100 µM (inactive) |  | > 100 µM (inactive) | > 100 µM (inactive) | > 100 µM (inactive) | 44.9 µM (inactive) | > 100 µM (inactive) | > 100 µM (inactive) | > 100 µM (inactive) | > 100 µM (inactive) | > 100 µM (inactive) | > 100 µM (inactive) | > 100 µM (inactive)
COc1ccc(C2C=C(c3ccccc3)Nc3nnnn32)cc1 (stereo not given) | 34.4 µM (inactive) | 24.1 µM (inactive) | 82.8 µM (inactive) | 15.8 µM (inactive) | > 100 µM (inactive) |  | 64 µM (inactive) | > 100 µM (inactive) | > 100 µM (inactive) | 37.7 µM (inactive) | 47.4 µM (inactive) | 44.9 µM (inactive) |  | 38.7 µM (inactive) | 31.7 µM (inactive) | > 100 µM (inactive) | 6.27 µM (inactive) | 98.4 µM (inactive) | 50.4 µM (inactive) | 
CCOC(=O)C1=COC(C)(C)CC1=O | > 100 µM (inactive) | > 100 µM (inactive) |  | > 100 µM (inactive) | > 100 µM (inactive) |  |  | > 100 µM (inactive) | > 100 µM (inactive) | > 100 µM (inactive) | > 100 µM (inactive) | > 100 µM (inactive) | > 100 µM (inactive) | > 100 µM (inactive) | > 100 µM (inactive) | > 100 µM (inactive) | > 100 µM (inactive) | > 100 µM (inactive) | > 100 µM (inactive) | 
CS/C=C\C(=O)O[C@H]1C[C@@H]2[C@@H](O)c3occ(C)c3C[C@]2(C)[C@@H](C)C1 |  | 24.9 µM (inactive) | 20.4 µM (inactive) | 91 µM (inactive) | 20.7 µM (inactive) | 18.3 µM (inactive) | 13.4 µM (inactive) | 30.3 µM (inactive) | 18.5 µM (inactive) | 34.8 µM (inactive) | 22.6 µM (inactive) | 28 µM (inactive) | 19.8 µM (inactive) |  | 36.6 µM (inactive) | 16 µM (inactive) | 50 µM (inactive) | 14.8 µM (inactive) | 17.9 µM (inactive) | 25.8 µM (inactive)
